Laboratory results published in patent US11491147B2, “Combination drug therapy reduces PARP-1 related DNA repair and increases the efficacy of genotoxic agents” (Indiana University Research and Technology Corporation, priority 2016, dated 2022).
pIC50: −log10 of the molar value.

Tests used:
M/FASN cells = assay: MTT survival assay, M/FASN cells; type: cell-based, human; details: for effect on M/FASN cell survival: 1 mM 3-ABA or 0.5 μM olaparib alone, 48 hours; for doxorubicin resistance level of M/FASN cells: pre-treated for 6 hours by 1 mM 3-ABA or 0.5 μM olaparib
Protocol: (§1) FIG. 5. PARP-1 mediates FASN-associated DNA repair and genotoxic treatment resistance. A-B, Effect of FASN on PARP-1 expression as determined by Western blot (A) and real-time RT-PCR (B) in stable FASN-over-expressing and -knockdown cells. C, Effect of FASN on IR-induced histone-H3 PARylation. Cells were pre-treated without or with 0.5 μM olaparib followed by treatment with or without IR and harvested at different times following IR for lysate preparation, immunoprecipitation of histone-H3 in the presence of 100 μM PARG inhibitor, gallotannin, and Western blot analyses of PARylated and total histone H3. D, Effect of PARP-1 knockdown on FASN-induced NHEJ up-regulation. FASN-over-expressing (P/FASN) and the control (P/Vec) cells were transiently transected with PARP-1 or scrambled control siRNA followed by Western blot analysis of PARP-1 (left panel) and NHEJ activity assay (right panel) (n=3, *p<0.05; **p<0.01). E, Effect of PARP-1 inhibition on survival. M/FASN cells were treated with 1 mM 3-ABA, 0.5 μM olaparib, or their vehicle control for 48 hours followed by MTT assay. F, Effect of PARP-1 inhibition on doxorubicin resistance. M/FASN cells were pre-treated for 6 hours by 1 mM 3-ABA, 0.5 μM olaparib, or transfected with control or PARP-1 siRNA followed by tested doxorubicin resistance using MTT survival assay. (n=3-4, *p<0.05, **p<0.01).
To determine if FASN enhancement of PARP-1 likely mediates FASN function in cellular resistance to DNA damages, a survival assay of […] cells following doxorubicin treatment in the absence or presence of PARP-1 inhibitors, 3-ABA (3-aminobenzamide) or olaparib was carried out. Now referring to FIG. 5E, either 1 mM 3-ABA or 0.5 μM olaparib alone had no effect on M/FASN cell survival.
MTT survival assay was performed as previously described (see e.g., Yang Y, Chen Q, & Zhang J T (2002) Structural and functional consequences of mutating cysteine residues in the amino terminus of human multidrug resistance-associated protein 1. J. Biol. Chem. 277(46):44268-44277). Briefly, cells in 96-well plate were cultured for 24 hours and treated with various concentrations of doxorubicin, bleomycin, cisplatin or H2O2 continuously for 3 days followed by addition of thiazolyl blue tetrazolium bromide (MTT) to a final concentration of 0.5 mg/mL and incubation at 37° C. for 4 hours. Medium was then removed and formazan was solubilized in dimethyl sulfoxide and the OD570 was measured by a Synergy H1 hybrid reader (BioTek, Winooski, Vt.). IC50's were obtained from the fitted curves generated by GraphPad Prism 5.0 program (GraphPad Software, Inc.). Relative resistance factor (RRF) is calculated using the formula RRF=IC50 (test)/IC50 (control) with control normalized as 1. […]

breast cancer cell lines = assay: Survival of breast cancer cell lines, methylene blue staining assay (FIG. 24); type: cell-based, human; details: triple negative breast cancer cell lines
Source text: (§2) FIG. 24. […] Actin was used as a loading control. D. effect of non-approved PPIs on the survival of breast cancer cell lines.

PARP1 and γ-H2AX = assay: Western blot of PARP1 and γ-H2AX (FIG. 24C); type: cell-based; details: dose-dependent
Protocol: as §2
Cells were harvest and then lysed in TNN buffer with 1 mM DTT, 1 mM PMSF and 0.1% SDS for 30 min at 4° C. with occasional agitation. The cells were sonicated briefly and total proteins were harvested after centrifugation of the lysate at 16,000 g for 15 minutes at to remove cell debris. The protein concentration of cell lysates was determined using a Bio-Rad protein assay kit. Total cell lysates were then separated by SDS-PAGE, transferred to a polyvinylidene fluoride membrane, and probed using antibodies against fatty acid synthase (610963, BD biosciences), PARP-1 (46D11, CST), γ-H2AX (05-636, Millipore), and (3-Actin (A2228, Sigma). The blot was then probed with horseradish peroxidase-conjugated secondary antibodies (Sigma) and signals were captured on X-ray films following developing with Amersham ECL Western Blotting Detection Reagent (RPN2106, GE).

TE activity of FASN = biological target: T1, TE activity of FASN (Homo sapiens, UniProt P49327); assay: TE activity assay using recombinant TE; type: biochemical
T1 construct: TE activity assay was performed also as previously described using recombinant TE (Fako et al., 2015)
T1 sequence (P49327 2207-2511 limits assumed): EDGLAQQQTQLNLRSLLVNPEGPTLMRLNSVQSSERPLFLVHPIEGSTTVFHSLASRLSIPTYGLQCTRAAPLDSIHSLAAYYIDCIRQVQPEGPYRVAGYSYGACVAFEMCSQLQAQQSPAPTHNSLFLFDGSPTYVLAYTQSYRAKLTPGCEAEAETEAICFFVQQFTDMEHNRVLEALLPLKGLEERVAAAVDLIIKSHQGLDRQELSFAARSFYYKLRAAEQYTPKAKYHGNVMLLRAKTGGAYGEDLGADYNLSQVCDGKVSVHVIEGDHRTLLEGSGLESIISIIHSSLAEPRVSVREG

MCF7 cells = assay: Colony formation survival assay, MCF7 cells; type: cell-based, human; details: Homo sapiens; single agent, MCF7 cells, colony formation; read-out: IC50, cell survival
Protocol: FIG. 15. […] B. Combination index. Combination index (CI) was derived using the data shown in A and the formula: […]
For each potency ratio, combination index of three effective concentrations at IC30, IC50, and IC70 were calculated for synergistic effects using Prism 7.0.
Cells were then harvested and re-plated in 6-well plates at a density of 200 cells/well followed by IR treatment at different doses and colony formation assay or collection of cells for Western blot analysis. Concentration-response curves and IC50 values were calculated using Prism 7.0 (GraphPad, La Jolla, USA).

PARylated histone-H3 = assay: IR-induced histone-H3 PARylation, immunoprecipitation and Western blot; type: cell-based, human; details: pre-treatment with 0.5 μM olaparib, 5 Gy IR, P/FASN and P/Vec cells
Protocol: as §1, with “*p<0.05, **p<0.01). […]” for “*p<0.05, **p<0.01).”

Q: `NC(=O)c1cccc(N)c1` [3-ABA, 3-aminobenzamide] was tested. Which “effect on M/FASN cell survival” value (M/FASN cells) did it give?
A: no effect

Q: And the “doxorubicin resistance level of M/FASN cells” value (M/FASN cells)?
A: significantly reduced

Q: How did the “suppression of triple negative breast cancer cell survival, compared with lansoprazole” value (breast cancer cell lines) turn out when `Cc1c(OCC(F)(F)F)ccnc1CSc1nc2cc(O)ccc2[nH]1` [5-hydroxy lansoprazole sulfide] was run?
A: significantly more effective than lansoprazole

Q: And the PARP1 expression (PARP1 and γ-H2AX)?
A: inhibited PARP1 expression

Q: And the “production of γ-H2AX” value (PARP1 and γ-H2AX)?
A: induced production of γ-H2AX in a dose-dependent manner

Q: How did the “inhibition of TE (Ki), R- versus S-enantiomer” value (TE activity of FASN) turn out when `Cc1c(OCC(F)(F)F)ccnc1C[S@@+]([O-])c1nc2ccccc2[nH]1` [R-lansoprazole] was run?
A: significantly more effective than the S-lansoprazole

Q: With `O=C(c1cc(Cc2n[nH]c(=O)c3ccccc23)ccc1F)N1CCN(C(=O)C2CC2)CC1` [olaparib] as the compound, how does the pIC50 (MCF7 cells) read?
A: 6.00

Q: And the “effect on M/FASN cell survival” value (M/FASN cells)?
A: no effect

Q: And the “doxorubicin resistance level of M/FASN cells” value (M/FASN cells)?
A: significantly reduced

Q: And the “IR-induced PARylation of histone-H3” value (PARylated histone-H3)?
A: inhibited IR-induced PARylation
